From US7501417B2, “Aminocarbonyl-derivatives as novel inhibitors of histone deacetylase” (Janssen Pharmaceutica, N.V., priority 2002, dated 2009)
≈ marks a conversion by molar mass, not a printed value.

How the values were obtained:
[1] = target: HDAC (HeLa nuclear extracts); test: In vitro assay for inhibition of histone deacetylase; assay type: biochemical; details: [3H]acetylated histone H4 peptide substrate
Procedure: The in vitro assay for inhibition of histone deacetylase (see example C.1) measures the inhibition of HDAC enzymatic activity obtained with the compounds of formula (I).
HeLa nuclear extracts (supplier: Biomol) were incubated at 60 μg/ml with 2×10^−8 M of radiolabeled peptide substrate. As a substrate for measuring HDAC activity a synthetic peptide, i.e. the amino acids 14-21 of histone H4, was used. The substrate is biotinylated at the NH2-terminal part with a 6-aminohexanoic acid spacer, and is protected at the COOH-terminal part by an amide group and specifically [^3H]acetylated at lysine 16. The substrate, biotin-(6-aminohexanoic)Gly-Ala-([^3H]-acetyl-Lys-Arg -His-Arg-Lys-Val-NH2), was added in a buffer containing 25 mM Hepes, 1 M sucrose, 0.1 mg/ml BSA and 0.01% Triton X-100 at pH 7.4. After 30 min the deacetylation reaction was terminated by the addition of HCl and acetic acid. (final concentration 0.035 mM and 3.8 mM respectively). After stopping the reaction, the free ^3H-acetate was extracted with ethylacetate. After mixing and centrifugation, the radioactivity in an aliquot of the upper (organic) phase was counted in a β-counter.
For each experiment, controls (containing HeLa nuclear extract and DMSO without compound), a blank incubation (containing DMSO but no HeLa nuclear extract or compound) and samples (containing compound dissolved in DMSO and HeLa nuclear extract) were run in parallel. In first instance, compounds were tested at a concentration of 10^−5M. […] In each test the blank value was subtracted from both the control and the sample values. The control sample represented 100% of substrate deactylation. For each sample the radioactivity was expressed as a percentage of the mean value of the controls. […] Herein the effects of test compounds are expressed as pIC50 (the negative log value of the IC50-value).

[2] = system: A2780 ovarian carcinoma cells; test: Determination of antiproliferative activity on A2780 cells (MTT); assay type: cell-based; details: Homo sapiens, 96 h, four days of incubation, read-out: Cellular activity pIC50 (converted)
Procedure: Cellular activity of the compounds of formula (I) was determined on A2780 tumour cells using a colorimetric assay for cell toxicity or survival (Mosmann Tim, Journal of Immunological Methods 65: 55-63, 1983)(see example C.2).
All compounds tested were dissolved in DMSO and further dilutions were made in culture medium. Final DMSO concentrations never exceeded 0.1% (v/v) in cell proliferation assays. Controls contained A2780 cells and DMSO without compound and blanks contained DMSO but no cells. MTT was dissolved at 5 mg/ml in PBS. A glycine buffer comprised of 0.1 M glycine and 0.1 M NaCl buffered to pH 10.5 with NaOH (1 N) was prepared (all reagents were from Merck).
The human A2780 ovarian carcinoma cells (a kind gift from Dr. T. C. Hamilton [Fox Chase Cancer Centre, Pennsylvania, USA]) were cultured in RPMI 1640 medium supplemented with 2 mM L-glutamine, 50 μg/ml gentamicin and 10% fetal calf serum. Cells were routinely kept as monolayer cultures at 37° C. in a humidified 5% CO2 atmosphere. Cells were passaged once a week using a trypsin/EDTA solution at a split ratio of 1:40. All media and supplements were obtained from Life Technologies. Cells were free of mycoplasma contamination as determined using the Gen-Probe Mycoplasma Tissue Culture kit (supplier: BioMérieux).
Cells were seeded in NUNC™ 96-well culture plates (Supplier: Life Technologies) and allowed to adhere to the plastic overnight. Densities used for plating were 1500 cells per well in a total volume of 200 μl medium. After cell adhesion to the plates, medium was changed and drugs and/or solvents were added to a final volume of 200 μl. Following four days of incubation, medium was replaced by 200 μl fresh medium and cell density and viability was assessed using an MTT-based assay. To each well, 25 μl MTT solution was added and the cells were further incubated for 2 hours at 37° C. The medium was then carefully aspirated and the blue MTT-formazan product was solubilized by addition of 25 μl glycine buffer followed by 100 μl of DMSO. […] Within an experiment, the results for each experimental condition are the mean of 3 replicate wells. For initial screening purposes, compounds were tested at a single fixed concentration of 10^−6 M. For active compounds, the experiments were repeated to establish full concentration-response curves. For each experiment, controls (containing no drug) and a blank incubation (containing no cells or drugs) were run in parallel. The blank value was subtracted from all control and sample values. For each sample, the mean value for cell growth (in absorbance units) was expressed as a percentage of the mean value for cell growth of the control. […] Herein the effects of test compounds are expressed as pIC50 (the negative log value of the IC50-value).

[3] = Kinetic solubility in aqueous media (nephelometry); assay type: physicochemical; details: aqueous buffer, kinetic from dmso stock; phosphate citrate buffer pH 7.4, turbidity of three dilution steps; read-out: Solubility Score
Procedure: Kinetic solubility in aqueous media measures the ability of a compound to stay in aqueous solution upon dilution (see example C.3).
DMSO-stock solutions are diluted with a single aqueous buffer solvent in 3 consecutive steps. For every dilution turbidity is measured with a nephelometer.
In the first dilution step, 10 μl of a concentrated stock-solution of the active compound, solubilized in DMSO (5 mM), was added to 100 μl phosphate citrate buffer pH 7.4 and mixed. In the second dilution step, an aliquot (20 μl) of the first dilution step was further dispensed in 100 μl phosphate citrate buffer pH 7.4 and mixed. Finally, in the third dilution step, a sample (20 μl) of the second dilution step was further diluted in 100 μl phosphate citrate buffer pH 7.4 and mixed. All dilutions were performed in 96-well plates. Immediately after the last dilution step the turbidity of the three consecutive dilution steps were measured with a nephelometer. Dilution was done in triplicate for each compound to exclude occasional errors. Based on the turbidity measurements a ranking is performed into 3 classes. Compounds with high solubility obtained a score of 3 and for this compounds the first dilution is clear. Compounds with medium solubility obtained a score of 2. For these compounds the first dilution is unclear and the second dilution is clear. […] The solubility of 3 compounds was measured.

| Enzyme activity pIC50 [1] | IC50 [2] [nM] | solubility [3] [µM] | melting point [°C] | SMILES |
| --- | --- | --- | --- | --- |
| >5 |  |  |  | Cc1cccc(C)c1NC(=O)N1CCN(c2ccc([N+](=O)[O-])cc2C(=O)NO)CC1 [compound 30] |
| 5.332 | > 10000 |  |  | Cc1ccc(NC(=O)N2CCN(c3ccc(NC(=O)CS)cc3)CC2)cc1 [Co. No. 3] |
| <5 | > 10000 |  |  | Cc1ccc(NC(=O)N2CCN(c3ccc(C(=O)NCCO)cc3)CC2)cc1 [Co. No. 2] |
| 7.728 | 277 | > 454 | > 260 | O=C(NO)c1cnc(N2CCN(C(=O)Nc3ccc(-c4ccccc4)cc3)CC2)nc1 [Co. No. 6] |
| 7.163 | 723 |  |  | CN(C(=O)N1CCN(c2ncc(C(=O)NO)cn2)CC1)c1ccccc1 [compound 48] |
| 6.754 | 4700 | < 75.8 |  | Cc1ccc(NC(=O)N2CCN(c3ccc(C(=O)NO)cc3)CC2)cc1 [Co. No. 1] |
| 7.127 | 769 |  |  | O=C(NO)c1cnc(N2CCN(C(=O)N(c3ccccc3)c3ccccc3)CC2)nc1 [Co. No. 4] |
| 7.65 | 711 | 75.8 to 454 (≈ 33.8 to 203 µg/mL) | > 260 | O=C(NCC1CCN(c2ncc(C(=O)NO)cn2)CC1)Nc1ccc(-c2ccccc2)cc1 [Co. No. 5] |
